Structures can show the parent of a compound that is named as a salt.

For orientation: Ki means the equilibrium dissociation constant of an inhibitor or competing ligand from its target.

The first experiment addresses T1, Sigma 2 (Rattus norvegicus, UniProt Q5U3Y7).
T1 sequence (Q5U3Y7 1-176): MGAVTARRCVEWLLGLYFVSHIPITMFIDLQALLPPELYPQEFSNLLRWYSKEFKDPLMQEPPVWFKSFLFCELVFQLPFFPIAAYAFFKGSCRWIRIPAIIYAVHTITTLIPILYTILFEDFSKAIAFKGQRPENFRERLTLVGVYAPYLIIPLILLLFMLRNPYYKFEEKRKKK
Experiment: not given
The following applies: read-out: Sigma 2 Ki; [^3H]-DTG 1 nM, 500 nM pentazocine, crude P2 membrane fraction from rat livers, 50 mM Tris-HCl pH 7.4, 25°C, 2 hours.
Consider `N=c1sc2cc(Cl)ccc2n1CC1CCN(C[C@H](O)c2ccc(F)cc2)CC1` (racemic) [Example 3, (R,S)-1-(4-Fluorophenyl)-2-[4-(6-chloro-2-iminobenzothiazolin-3-ylmethyl)-piperidin-1-yl]ethanol dihydrochloride], for which the Ki came out at 35 nM.

In another experiment the target is T1, Sigma 2. Nature of the experiment: biochemical.
Conditions: not given
Consider `N=c1sc2cc(Cl)ccc2n1CC1CCN(CC(O)C23CC4CC(CC(C4)C2)C3)CC1` (racemic) [Example 1, (R,S)-1-(1-Adamantyl)-2-[4-(6-chloro-2-iminobenzothiazolin-3-ylmethyl)piperidin-1-yl] ethanol dihydrochloride], for which affinity was put at a Ki of 8.7 nM.
On the same count and under the same terms, as for `CN=c1sc2cc(Cl)ccc2n1CC1CCN(CC(O)c2ccc(F)cc2)CC1` (racemic) [Example 5, (R,S)-1-(4-Fluorophenyl)-2-[4-(6-chloro-2-methyliminobenzothiazolin-3-yl-methyl)piperidin-1-yl]ethanol dihydrochloride], the figure is 7.2 nM; as for `N=c1sc2cc(Cl)ccc2n1CC1CCN(CC(O)c2ccc(F)c(F)c2)CC1` (racemic) [Example 6, (R,S)-1-(3,4-Difluorophenyl)-2-[4-(6-chloro-2-iminobenzothiazolin-3-yl-methyl)piperidin-1-yl]ethanol dihydrochloride], 25 nM; as for `N=c1sc2cc(Cl)ccc2n1CC1CCN(CC(O)c2cccc(F)c2)CC1` (racemic) [Example 11, (R,S)-1-(3-Fluorophenyl)-2-[4-(6-chloro-2-iminobenzothiazolin-3-yl-methyl)piperidin-1-yl]ethanol dihydrochloride], 36 nM.
Consider `CN=c1sc2cc(Cl)ccc2n1CC1CCN(CC(O)c2ccc(F)cc2F)CC1` (racemic) [Example 22, (R,S)-1-(2,4-Difluorophenyl)-2-[4-(6-chloro-2-methyliminobenzothiazolin-3-ylmethyl)piperidin-1-yl]ethanol dihydrochloride], for which the affinity corresponds to a Ki of 9.4 nM.
The same measure, in the same setting: in the case of `CN=c1sc2cc(Cl)ccc2n1CCCCN(C)CC(O)c1ccc(F)cc1` (racemic) [Example 30, (R,S)-1-(4-Fluorophenyl)-2-[[N-[4-(6-chloro-2-methyliminobenzothiazolin-3-yl)butyl]-N-methyl]amino]ethanol dihydrochloride] it was 25 nM.
Same read-out and setting: in the case of `O=c1sc2cc(Br)ccc2n1CC1CCN(CC(O)c2ccc(F)cc2)CC1` (racemic) [Example 32, (R,S)-1-(4-Fluorophenyl)-2-[4-(6-bromo-2-oxobenzothiazolin-3-ylmethyl)-piperidin-1-yl]ethanol hydrochloride] it was 4 nM.
Still for that read-out and setting: as for `O=c1sc2ccc(Cl)cc2n1CC1CCN(CC(O)c2ccc(F)cc2)CC1` (racemic) [Example 40, (R,S)-1-(4-Fluorophenyl)-2-[4-(5-chloro-2-oxobenzothiazolin-3-ylmethyl)piperidin-1-yl]ethanol hydrochloride], the figure is 4.7 nM; as for `N=c1sc2cc(Cl)ccc2n1CC1CCN(CC(=O)c2ccc(F)cc2)CC1` [Example 2, 3-[[1-[2-(4-Fluorophenyl)-2-oxoethyl]-4-piperidinyl]methyl]-6-chloro-2-iminobenzothiazoline dihydrochloride], 7 nM; as for `CN=c1sc2cc(Cl)ccc2n1CC1CCN(CC(=O)c2ccc(F)cc2)CC1` [Example 4, 3-[[1-[2-(-Fluorophenyl)-2-oxoethyl]-4-piperidinyl]methyl]-6-chloro-2-methyliminobenzothiazoline dihydrochloride], 4 nM.
In turn, `CC(=O)N=c1sc2cc(Cl)ccc2n1CC1CCN(CC(=O)c2ccc(F)cc2)CC1` [Example 9, 3-[[1-[2-(4-Fluorophenyl)-2-oxoethyl]-4-piperidinyl]methyl]-6-chloro-2-acetyliminobenzothiazoline hydrochloride] had an inhibition constant Ki of 9.3 nM.
`N=c1sc2ccccc2n1CC1CCN(CC(=O)c2ccc(F)cc2)CC1` [Example 15, 3-[[1-[2-(4-Fluorophenyl)-2-oxoethyl]-4-piperidinyl]methyl]-2-iminobenzothiazoline dihydrochloride] had an inhibitory constant (Ki) of 28 nM.
For `Cc1ccc2c(c1)sc(=N)n2CC1CCN(CC(=O)c2ccc(F)cc2)CC1` [Example 18, 3-[[1-[2-(4-Fluorophenyl)-2-oxoethyl]-4-piperidinyl]methyl]-6-methyl-2-iminobenzothiazoline dihydrochloride], the Ki turned out to be 23 nM.
Regarding `N=c1sc2cc(F)ccc2n1CC1CCN(CC(=O)c2ccc(F)cc2)CC1` [Example 19, 3-[[1-[2-(4-Fluorophenyl)-2-oxoethyl]-4-piperidinyl]methyl]-6-fluoro-2-iminobenzothiazoline dihydrochloride], affinity was put at a Ki of 21 nM.
Turning to `CN=c1sc2cc(Cl)ccc2n1CC1CCN(CC(=O)c2ccc(S(N)(=O)=O)cc2)CC1` [Example 21, 3-[[1-[2-(4-Aminosulfonylphenyl)-2-oxoethyl]-4-piperidinyl]methyl]-6-chloro-2-methyliminobenzothiazoline dihydrochloride], the affinity corresponds to a Ki of 17 nM.
The same measure, in the same setting: as for `N=c1sc2cc(C(F)(F)F)ccc2n1CC1CCN(CC(=O)c2ccc(F)cc2)CC1` [Example 23, 3-[[1-[2-(4-Fluorophenyl)-2-oxoethyl]-4-piperidinyl]methyl]-2-imino-6-trifluoromethylbenzothiazoline dihydrochloride], the figure is 7.3 nM; as for `CN=c1sc2cc(Cl)ccc2n1CC1CCN(C[C@H](O)c2ccc(F)cc2)CC1` [Example 27, (R)-1-(4-Fluorophenyl)-2-[4-(6-chloro-2-methyliminobenzothiazolin-3-yl-methyl)piperidin-1-yl]ethanol dihydrochloride], 17 nM; as for `CN=c1sc2cc(Cl)ccc2n1CC1CCN(C[C@@H](O)c2ccc(F)cc2)CC1` [Example 28, (S)-1-(4-Fluorophenyl)-2-[4-(6-chloro-2-methyliminobenzothiazolin-3-yl-methyl)piperidine-1-yl]ethanol dihydrochloride], 19 nM.
The molecule `O=C(CN1CCC(Cn2c(=O)sc3cc(Br)ccc32)CC1)c1ccc(F)cc1` [Example 31, 3-[[1-[2-(4-Fluorophenyl)-2-oxoethyl]-4-piperidinyl]methyl]-6-bromo-2-oxobenzothiazoline hydrochloride] returned a Ki of 6.3 nM.
Still for that read-out and setting: in the case of `O=C(CN1CCC(Cn2c(=O)sc3cc(Cl)ccc32)CC1)c1ccc(F)cc1` [Example 33, 3-[[1-[2-(4-Fluorophenyl)-2-oxoethyl]-4-piperidinyl]methyl]-6-chloro-2-oxobenzothiazoline hydrochloride] it was 4.5 nM; in that of `O=C(CN1CCC(Cn2c(=O)sc3cc([N+](=O)[O-])ccc32)CC1)c1ccc(F)cc1` [Example 35, 3-[[1-[2-(4-Fluorophenyl)-2-oxoethyl]-4-piperidinyl]methyl]-6-nitro-2-oxobenzothiazoline hydrochloride], 13 nM.
`O=c1sc2cc([N+](=O)[O-])ccc2n1CC1CCN(CC(O)c2ccc(F)cc2)CC1` (stereo not drawn) [Example 36, 1-(4-Fluorophenyl)-2-[4-(6-nitro-2-oxobenzothiazolin-3-ylmethyl)piperidin-1-yl]ethanol hydrochloride]: the affinity corresponds to a Ki of 31 nM.
The same measure, in the same setting: in the case of `O=C(CN1CCC(Cn2c(=O)sc3ccc(Cl)cc32)CC1)c1ccc(F)cc1` [Example 39, 3-[[1-[2-(4-Fluorophenyl)-2-oxoethyl]-4-piperidinyl]methyl]-5-chloro-2-oxobenzothiazoline hydrochloride] it was 3.1 nM.
